EC50 data for 33 molecules are collected here from patent US8785445B2 (Array BioPharma Inc., priority 2008, dated 2014).

As usually defined, the EC50 is the midpoint of the concentration-response curve.

For one experiment, the target named is T1, human DP2 (Homo sapiens, UniProt Q9Y5Y4).
T1 construct: expressed in transfected cells; membranes prepared
T1 sequence (Q9Y5Y4 1-395): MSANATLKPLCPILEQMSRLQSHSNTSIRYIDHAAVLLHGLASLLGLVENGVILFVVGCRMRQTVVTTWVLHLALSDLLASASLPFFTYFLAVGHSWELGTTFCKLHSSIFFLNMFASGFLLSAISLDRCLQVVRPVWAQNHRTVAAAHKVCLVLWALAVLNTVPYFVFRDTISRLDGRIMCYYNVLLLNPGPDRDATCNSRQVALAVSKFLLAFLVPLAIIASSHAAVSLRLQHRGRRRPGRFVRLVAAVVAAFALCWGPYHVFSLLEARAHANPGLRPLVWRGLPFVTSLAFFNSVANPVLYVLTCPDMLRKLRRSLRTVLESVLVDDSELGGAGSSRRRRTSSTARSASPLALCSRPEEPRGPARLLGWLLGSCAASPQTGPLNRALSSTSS
As to the kind of experiment: DP-2 binding inhibition assay (3H-PGD2, membranes of DP2-expressing K562 cells). Conditions: 0.1% BSA, read-out: EC50 (nM) 0.1% BSA. An outline of the steps: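 Displacement of 3H-PGD2 was measured by filtration and scintillation counting after 60 min at room temperature, using membranes of DP2-transfected K562 cells in 0.1% BSA, 1% HSA or 4% HSA.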
Regarding `O=C(Nc1ccc(C(F)(F)F)nc1)c1ccc(Oc2cc3c(cc2Cl)C(C(=O)O)CCO3)cc1` (stereo not shown) [Example 29, 6-Chloro-7-(4-(6-(trifluoromethyl)pyridin-3-ylcarbamoyl)phenoxy)chroman-4-carboxylic acid], the EC50 turned out to be 34.7 nM.

For the molecule `N#Cc1cc2c(cc1Oc1ccc(C(=O)Nc3ccc(C(F)(F)F)nc3)cc1)OCCC2C(=O)O` (stereo not shown) [Example 6, 7-(4-((6-(Trifluoromethyl)pyridin-3-yl)carbamoyl)phenoxy)-6-cyanochroman-4-carboxylic acid], the concentration for a half-maximal effect (EC50) stood at 16.9 nM.

Regarding `N#Cc1cc2c(cc1Oc1ccc(C(=O)Nc3nc4c(Cl)cccc4s3)cc1)OCCC2C(=O)O` (stereo not shown) [Example 199], the EC50 amounted to 10.8 nM.

For the molecule `N#Cc1cc2c(cc1Oc1ccc(C(=O)Nc3ccc(Cl)cn3)cc1)OCCC2C(=O)O` (stereo not shown) [Example 2, 7-(4-(5-Chloropyridin-2-ylcarbamoyl)phenoxy)-6-cyanochroman-4-carboxylic acid], the EC50 worked out at 26.7 nM.

As to `N#Cc1cc2c(cc1Oc1ccc(C(=O)Nc3ccc4cn[nH]c4c3)cc1)OCCC2C(=O)O` (stereo not shown) [Example 193, 7-(4-(1H-indazol-6-ylcarbamoyl)phenoxy)-6-cyanochroman-4-carboxylic acid], the concentration giving a half-maximal response (EC50) amounted to 36.7 nM.

With `N#Cc1cc2c(cc1Oc1ccc(C(=O)NCCc3ccc(C(F)(F)F)cn3)cc1)OCCC2C(=O)O` (stereo not shown) [Example 11], the EC50 came out at 47.6 nM.

The same experiment, now with this note: 1% HSA, read-out: EC50 (nM) 1% HSA.
Turning to `O=C(Nc1ccc(C(F)(F)F)nc1)c1ccc(Oc2cc3c(cc2Cl)C(C(=O)O)CCO3)cc1` (stereo not shown) [Example 29, 6-Chloro-7-(4-(6-(trifluoromethyl)pyridin-3-ylcarbamoyl)phenoxy)chroman-4-carboxylic acid], the concentration for a half-maximal effect (EC50) stood at 661 nM.

`N#Cc1cc2c(cc1Oc1ccc(C(=O)Nc3ccc(C(F)(F)F)nc3)cc1)OCCC2C(=O)O` (stereo not shown) [Example 6, 7-(4-((6-(Trifluoromethyl)pyridin-3-yl)carbamoyl)phenoxy)-6-cyanochroman-4-carboxylic acid]: the half-maximal effective concentration (EC50) stood at 524 nM.

`N#Cc1cc2c(cc1Oc1ccc(C(=O)NCCc3ccc(C(F)(F)F)cn3)cc1)OCCC2C(=O)O` (stereo not shown) [Example 11]: the EC50 turned out to be 183 nM.

The same experiment, now with this note: 4% HSA, read-out: EC50 (nM) 4% HSA.
For the molecule `O=C(Nc1ccc(C(F)(F)F)nc1)c1ccc(Oc2cc3c(cc2Cl)C(C(=O)O)CCO3)cc1` (stereo not shown) [Example 29, 6-Chloro-7-(4-(6-(trifluoromethyl)pyridin-3-ylcarbamoyl)phenoxy)chroman-4-carboxylic acid], the EC50 is 49.5 nM.

In the case of `O=C(Nc1ccc(-c2cccc(C(F)(F)F)c2)cn1)c1ccc(Oc2cc3c(cc2Cl)C(C(=O)O)CCO3)cc1` (stereo not shown) [Example 119], the EC50 came out at 422 nM.

On to `O=C(NCCc1cccnc1N1CCCCC1)c1ccc(Oc2cc3c(cc2Cl)C(C(=O)O)CCO3)cc1` (stereo not shown) [Example 226, 6-chloro-7-(4-(2-(2-(piperidin-1-yl)pyridin-3-yl)ethylcarbamoyl)phenoxy) chroman-4-carboxylic acid], for which the concentration for a half-maximal effect (EC50) came to 1920 nM.

Consider `COc1ccc(-c2ccc(NC(=O)c3ccc(Oc4cc5c(cc4Cl)C(C(=O)O)CCO5)cc3)nc2)c(OC)n1` (stereo not shown) [Example 74, Sodium 6-chloro-7-(4-(2′,6′-dimethoxy-3,3′-bipyridin-6-ylcarbamoyl)phenoxy)chroman-4-carboxylate], for which the EC50 was determined as 794 nM.

As to `COc1ccc(-c2cccc(NC(=O)c3ccc(Oc4cc5c(cc4Cl)C(C(=O)O)CCO5)cc3)n2)cn1` (stereo not shown) [Example 54, Sodium 6-chloro-7-(4-(6′-methoxy-2,3′-bipyridin-6-ylcarbamoyl)phenoxy)chroman-4-carboxylate], the EC50 was determined as 337 nM.

Take `CC(C)Cc1cccc(NC(=O)c2ccc(Oc3cc4c(cc3Cl)C(C(=O)O)CCO4)cc2)n1` (stereo not shown) [Example 105, 6-Chloro-7-(4-(6-isobutylpyridin-2-ylcarbamoyl)phenoxy)chroman-4-carboxylic acid]: the EC50 is 133 nM.

As for `COc1ncc(CCNC(=O)c2ccc(Oc3cc4c(cc3Cl)C(C(=O)O)CCO4)cc2)c(OC)n1` (stereo not shown) [Example 220, 6-chloro-7-(4-(2-(2,4-dimethoxypyrimidin-5-yl)ethylcarbamoyl)phenoxy) chroman-4-carboxylic acid], the concentration giving a half-maximal response (EC50) amounted to 379 nM.

Consider `O=C(Nc1nc(-c2ccc(Cl)cc2)cs1)c1ccc(Oc2cc3c(cc2Cl)C(C(=O)O)CCO3)cc1` (stereo not shown) [Example 152, 6-chloro-7-(4-(4-(4-chlorophenyl)thiazol-2-ylcarbamoyl)phenoxy)chroman-4-carboxylic acid], for which the EC50 is 45.3 nM.

Turning to `N#Cc1cc2c(cc1Oc1ccc(C(=O)Nc3cccc(-c4ccc5c(c4)CCO5)n3)cc1)OCCC2C(=O)O` (stereo not shown) [Example 43, 6-Cyano-7-(4-(6-(2,3-dihydrobenzofuran-5-yl)pyridin-2-ylcarbamoyl)-phenoxy)chroman-4-carboxylic acid], the EC50 came out at 291 nM.

For `COc1ccc(CCNC(=O)c2ccc(Oc3cc4c(cc3Cl)C(C(=O)O)CCO4)cc2)cn1` (stereo not shown) [Example 217, 6-chloro-7-(4-(2-(6-methoxypyridin-3-yl)ethylcarbamoyl)phenoxy) chroman-4-carboxylic acid], the EC50 stood at 1370 nM.

Regarding `O=C(Nc1nc(-c2cccc(Cl)c2)cs1)c1ccc(Oc2cc3c(cc2Cl)C(C(=O)O)CCO3)cc1` (stereo not shown) [Example 157, 6-chloro-7-(4-(4-(3-chlorophenyl)thiazol-2-ylcarbamoyl)phenoxy)chroman-4-carboxylic acid], the EC50 was 16.6 nM.

For the molecule `COc1cccc2cc(NC(=O)c3ccc(Oc4cc5c(cc4C#N)C(C(=O)O)CCO5)cc3)cnc12` (stereo not shown) [Example 7, 6-Cyano-7-(4-(8-methoxyquinolin-3-ylcarbamoyl)phenoxy)chroman-4-carboxylic acid], the EC50 stood at 2070 nM.

For the molecule `O=C(Nc1ccnc(-c2cccc(Cl)c2)c1)c1ccc(Oc2cc3c(cc2Cl)C(C(=O)O)CCO3)cc1` (stereo not shown) [Example 129, 6-Chloro-7-(4-(2-(3-chlorophenyl)pyridin-4-ylcarbamoyl)phenoxy)chroman-4-carboxylic acid], the concentration for a half-maximal effect (EC50) is 437 nM.

Consider `O=C(Nc1nc2ccc(C(F)(F)F)cc2s1)c1ccc(Oc2cc3c(cc2Cl)C(C(=O)O)CCO3)cc1` (stereo not shown) [Example 183, 6-Chloro-7-(4-(6-(trifluoromethyl)benzo[d]thiazol-2-ylcarbamoyl)phenoxy)chroman-4-carboxylic acid], for which the 50% effective concentration (EC50) turned out to be 45.8 nM.

As to `COc1ccc2nc(NC(=O)c3ccc(Oc4cc5c(cc4Cl)C(C(=O)O)CCO5)cc3)ccc2c1` (stereo not shown) [Example 22, 6-Chloro-7-(4-(6-methoxyquinolin-2-ylcarbamoyl)phenoxy)chroman-4-carboxylic acid], the 50% effective concentration (EC50) is 466 nM.

For the molecule `COc1ccc(-c2cccc(NC(=O)c3ccc(Oc4cc5c(cc4Cl)C(C(=O)O)CCO5)cc3)n2)c(OC)n1` (stereo not shown) [Example 55, Sodium 6-chloro-7-(4-(2′,6′-dimethoxy-2,3′-bipyridin-6-ylcarbamoyl)phenoxy)chroman-4-carboxylate], the half-maximal effective concentration (EC50) came to 258 nM.

`O=C(Nc1nnc(-c2ccccc2)s1)c1ccc(Oc2cc3c(cc2Cl)C(C(=O)O)CCO3)cc1` (stereo not shown) [Example 148, 6-chloro-7-(4-(5-phenyl-1,3,4-thiadiazol-2-ylcarbamoyl)phenoxy)chroman-4-carboxylic acid]: the EC50 was determined as 5460 nM.

Take `O=C(Nc1cccc(-c2ccc(Cl)cc2)n1)c1ccc(Oc2c(Cl)cc3c(c2Cl)OCCC3C(=O)O)cc1` (stereo not shown) [Example 143, Sodium 6,8-dichloro-7-(4-(6-(4-chlorophenyl)pyridin-2-ylcarbamoyl)phenoxy)-chroman-4-carboxylate]: the EC50 was determined as 83.4 nM.

For the molecule `O=C(Nc1cncc(-c2cccc(Cl)c2)n1)c1ccc(Oc2cc3c(cc2Cl)C(C(=O)O)CCO3)cc1` (stereo not shown) [Example 92, 6-Chloro-7-(4-(6-(3-chlorophenyl)pyrazin-2-ylcarbamoyl)phenoxy)chroman-4-carboxylic acid], the EC50 was 415 nM.

On to `O=C(Nc1cccc(-c2ccc(Cl)cc2)n1)c1ccc(Oc2cc3c(cc2Cl)C(C(=O)O)CCO3)cc1` (stereo not shown) [Example 33, 6-Chloro-7-(4-(6-(4-chlorophenyl)pyridin-2-ylcarbamoyl)phenoxy)chroman-4-carboxylic acid], for which the EC50 worked out at 30 nM.

Turning to `Cc1cc(NC(=O)c2ccc(Oc3cc4c(cc3Cl)C(C(=O)O)CCO4)cc2)nc2ccccc12` (stereo not shown) [Example 21, 6-Chloro-7-(4-(4-methylquinolin-2-ylcarbamoyl)phenoxy)chroman-4-carboxylic acid], the 50% effective concentration (EC50) amounted to 265 nM.

Consider `COc1ccc(-c2cccc(CCNC(=O)c3ccc(Oc4cc5c(cc4Cl)C(C(=O)O)CCO5)cc3)n2)cn1` (stereo not shown) [Example 215, 6-chloro-7-(4-(2-(6′-methoxy-2,3′-bipyridin-6-yl)ethylcarbamoyl)phenoxy)chroman-4-carboxylic acid], for which the EC50 worked out at 1600 nM.

On to `N#Cc1cc2c(cc1Oc1ccc(C(=O)Nc3cccc(-c4ccc(Cl)cc4Cl)n3)cc1)OCCC2C(=O)O` (stereo not shown) [Example 49, 6-Cyano-7-(4-(6-(2,4-dichlorophenyl)pyridin-2-ylcarbamoyl)phenoxy)chroman-4-carboxylic acid], for which the concentration giving a half-maximal response (EC50) worked out at 87.3 nM.

In the case of `O=C(Nc1ccn(-c2cccc(Cl)c2F)n1)c1ccc(Oc2cc3c(cc2Cl)C(C(=O)O)CCO3)cc1` (stereo not shown) [Example 169, 6-chloro-7-(4-(1-(3-chloro-2-fluorophenyl)-1H-pyrazol-3-ylcarbamoyl)phenoxy)chroman-4-carboxylic acid], the EC50 turned out to be 76 nM.

For `O=C(Nc1ccc(-c2cccc(Cl)c2)nc1)c1ccc(Oc2c(Cl)cc3c(c2Cl)OCCC3C(=O)O)cc1` (stereo not shown) [Example 145, Sodium 6,8-dichloro-7-(4-(6-(3-chlorophenyl)pyridin-3-ylcarbamoyl)phenoxy)-chroman-4-carboxylate], the 50% effective concentration (EC50) was determined as 160 nM.

For `O=C(Nc1ccn(-c2ccc(Cl)cc2)n1)c1ccc(Oc2cc3c(cc2Cl)C(C(=O)O)CCO3)cc1` (stereo not shown) [Example 175, 6-chloro-7-(4-(1-(4-chlorophenyl)-1H-pyrazol-3-ylcarbamoyl)phenoxy)chroman-4-carboxylic acid], the concentration giving a half-maximal response (EC50) was 80.7 nM.

As for `O=C(Nc1cncc(-c2ccc(Cl)cc2)n1)c1ccc(Oc2c(Cl)cc3c(c2Cl)OCCC3C(=O)O)cc1` (stereo not shown) [Example 136, 6,8-Dichloro-7-(4-(6-(4-chlorophenyl)pyrazin-2-ylcarbamoyl)phenoxy)chroman-4-carboxylic acid], the EC50 was 442 nM.

Regarding `N#Cc1cc2c(cc1Oc1ccc(C(=O)Nc3cccc(-c4cccc(C(F)(F)F)c4)n3)cc1)OCCC2C(=O)O` (stereo not shown) [Example 41, 6-Cyano-7-(4-(6-(3-(trifluoromethyl)phenyl)pyridin-2-ylcarbamoyl)-phenoxy)chroman-4-carboxylic acid], the EC50 is 50.8 nM.
